Holding throughout (assay type): functional
Assay [1] concerns Streptococcus pneumoniae. Put plainly: Antibacterial activity against Streptococcus pneumoniae 31002 by CLSI agar microdilution method.
The test system of assay [2] is Enterococcus faecalis. Put plainly: microbe, parasite or virus in culture. As to conditions: ATCC 51299.
Another assay relates to Staphylococcus. Put plainly: Antibacterial activity against Staphylococcus albus 26101 by CLSI agar microdilution method.
The next assay relates to Streptococcus. Put plainly: Antibacterial activity against Streptococcus gamma 32206 by CLSI agar microdilution method.
Assay [3] concerns Staphylococcus epidermidis. Put plainly: Antibacterial activity against Staphylococcus epidermidis 26069 by CLSI agar microdilution method.
The subject of assay [4] is Streptococcus pneumoniae. Kind of assay: Antibacterial activity against penicillin-resistant Streptococcus pneumoniae MSPN 0003 by CLSI broth microdilution method. Background: In broth dilution the organism is exposed to a series of concentrations in liquid medium.
The test system of assay [5] is Staphylococcus aureus. Kind of assay: Antibacterial activity against Staphylococcus aureus 26003 by CLSI agar microdilution method.
The subject of assay [6] is Enterococcus faecium. Put plainly: Antibacterial activity against Enterococcus faecium 32220 by CLSI agar microdilution method.
Assay [7] has as its system Staphylococcus aureus. Kind of assay: microbe, parasite or virus in culture. To be noted: ATCC 33591.
Description: Antibacterial activity against methicillin-resistant Staphylococcus aureus ATCC 33591 by CLSI agar microdilution method
The subject of assay [8] is Staphylococcus aureus. Put plainly: microbe, parasite or virus in culture. To be noted: ATCC 25923.
Description: Antibacterial activity against methicillin-sensitive Staphylococcus aureus ATCC 25923 by CLSI agar microdilution method
The subject of assay [9] is Enterococcus faecium. Put plainly: Antibacterial activity against vancomycin-resistant Enterococcus faecium MEFA 0039 by CLSI agar microdilution method relative to vancomycin.
In assay [10] the test system is Streptococcus pneumoniae. Kind of assay: Antibacterial activity against penicillin-intermediate Streptococcus pneumoniae ATCC 49619 by CLSI broth microdilution method.
Assay [11] has as its system Enterococcus faecium. Kind of assay: Antibacterial activity against vancomycin-sensitive Enterococcus faecium ATCC 35667 by CLSI agar microdilution method.
Assay [12] relates to Enterococcus faecium. Kind of assay: Antibacterial activity against vancomycin-resistant Enterococcus faecium MEFA 0039 by CLSI agar microdilution method.
Assay [13] deals with Enterococcus faecalis. Kind of assay: Antibacterial activity against vancomycin-resistant Enterococcus faecalis ATCC 51299 by CLSI agar microdilution method relative to vancomycin.
The subject of assay [14] is Enterococcus faecalis. Kind of assay: microbe, parasite or virus in culture. To be noted: ATCC 29212.
Description: Antibacterial activity against vancomycin-sensitive Enterococcus faecalis ATCC 29212 by CLSI agar microdilution method

Values after ≈ are worked out from the molar mass of the structure shown.

Regarding `CN[C@H](CC(C)C)C(=O)N[C@H]1C(=O)N[C@@H](CC(N)=O)C(=O)N[C@H]2C(=O)N[C@H]3C(=O)N[C@H](C(=O)N[C@@H](C(=O)O)c4cc(O)cc(O)c4-c4cc3ccc4O)[C@H](O[C@H]3C[C@](C)(N)[C@H](O)[C@H](C)O3)c3ccc(c(Cl)c3)Oc3cc2cc(c3O[C@@H]2O[C@H](CO)[C@@H](O)[C@H](O)[C@H]2O[C@H]2C[C@](C)(NCc3ccccc3Cl)[C@H](O)[C@H](C)O2)Oc2ccc(cc2Cl)[C@H]1O`, the MIC turned out to be 0.78 µg/mL (≈ 0.454 µM) against Streptococcus pneumoniae [1]; 0.5 µg/mL (≈ 0.291 µM) in the assay on Enterococcus faecalis [2]; 3.13 µg/mL (≈ 1.82 µM) in the assay with Staphylococcus; 1.56 µg/mL (≈ 0.909 µM) against Streptococcus; 6.25 µg/mL (≈ 3.64 µM) in [3]; 0.125 µg/mL (≈ 0.0728 µM) against Streptococcus pneumoniae [4]. Also, the MIC against Staphylococcus aureus [5] is 1.56 µg/mL (≈ 0.909 µM); in the assay with Enterococcus faecium [6] it was 1.56 µg/mL (≈ 0.909 µM); against Staphylococcus aureus [7], 0.5 µg/mL (≈ 0.291 µM); in the assay with Staphylococcus aureus [8], 1 µg/mL (≈ 0.582 µM); in the assay on Streptococcus pneumoniae [10], at most 0.031 µg/mL; in the assay on Enterococcus faecium [11], 0.25 µg/mL (≈ 0.146 µM). The MIC was 8 µg/mL (≈ 4.66 µM) against Enterococcus faecium [12] and 0.5 µg/mL (≈ 0.291 µM) in the assay on Enterococcus faecalis [14]. The “fold change (FC)” value in the assay with Enterococcus faecium [9] and in the assay with Enterococcus faecalis [13] was 4 throughout.

The record behind these values is ChEMBL document CHEMBL1909570, “Synthesis and antibacterial activity of N4-mono alkyl derivatives of novel glycopeptide LYV07ww01” (2011).
